What was measured:
[1] = tested on: IL-17 production in human blood; assay: Effect on IL-17 production in human blood; type: cell-based; details: 72 h, 10 μM test compound, IL-23 and Dynabeads stimulation, 3 days, read-out: Percent Inhibition at 10 μM (IL-17 production)
Description: Effect on IL-17 Production in Human Blood
The inhibitory effect of the test compound on IL-17 production in human blood was evaluated as follows. First, 150 μL of peripheral blood collected from healthy individuals using heparinized vacuum blood collection tubes was dispensed into each well of a 96-well plate (Corning), and 45 μL of RPMI 1640 medium (Gibco) containing 10% fetal bovine serum (FBS, Hyclone) and 30 μL of the test compound diluted with the medium was added to each well. The plate was then cultured for 30 min at 37° C. Cells were subsequently stimulated by adding 30 μL of 100 ng/mL human IL-23 (R&D) and 45 μL of Dynabeads Human (Invitrogen) to each well and culturing the plate for 3 days at 37° C. In wells without stimulation, 75 μL of RPMI 1640 medium containing 10% FBS was added instead of the IL-23 and Dynabeads solution. After culturing for 3 days, the culture supernatant was collected, and the amount of IL-17 in the supernatant was measured using an IL-17 ELISA kit (R&D).
The results of the above-described measurements (percent inhibition of IL-17 production with 10 μM of the test compound) are shown in Table 4.

IL-17A gene expression = assay: Effect on IL-23-induced cytokine expression in mice; type: in vivo, Balb/c mice; details: Mus musculus; dose 10 mg/kg oral, 30 min before and 8 hr after IL-23; versus the negative control group; read-out: Percent inhibition of IL-17A gene expression
Description: Effect on IL-23-induced Cytokine Expression in Mice
A mouse IL-23 solution (500 ng/10 μL, prepared by Takeda Pharmaceutical Company Limited) or PBS (10 μL, negative control group) was administered intradermally in the ear of Balb/c mice (Charles River Japan, male, 7 weeks old). Twenty-four hr after administration, the ear was resected under isoflurane anesthesia. The test compound was suspended in 0.5% methylcellulose and administered orally 30 min before and 8 hr after IL-23 administration.
RNA extraction from the ear tissue and quantitative PCR were performed as follows. Specifically, ear tissue 5 mm in diameter was punched from an area of the resected ear centering on the IL-23 injection site, and the tissue was immersed in RNAlater (QIAGEN) for at least 18 hr. The RNAlater-treated ear tissue was homogenized in 350 μL of RLT buffer (RNeasy mini kit, QIAGEN) and treated (55° C., 10 min) with Proteinase K (QIAGEN). Total RNA was then extracted according to the RNeasy mini kit protocol. The RNA thus obtained was then reverse transcribed into cDNA using the High-Capacity RNA-to-cDNA kit (Applied Biosystems), and the amount of each cytokine expressions was measured by real-time PCR (Viia7™, Applied Biosystems). The PCR buffer used was TaqMan Fast Advanced Master Mix (Applied Biosystems), and TaqMan Gene Expression Assays (Applied Biosystems) Mm00439618 ml (IL-17A) and 4352341E (β-actin) were used for cytokine gene detection. The IL-17A gene expression level was normalized to the R-actin gene expression level, and the percent inhibition of IL-17A gene expression with the test compound was then calculated.
The results obtained with the above-described method (percent inhibition of IL-17A gene expression with oral administration of the test compound) are shown in Table 5.

[2] = tested on: mouse model of IL-23-induced psoriasis; assay: Effect in a mouse model of IL-23-induced psoriasis; type: in vivo, Balb/c mice; details: dose 30 mg/kg oral twice daily; versus the negative control group
Description: Effect in a Mouse Model of IL-23-induced Psoriasis
Mouse IL-23 (500 ng/15 μL, R&D) or PBS (15 μL, negative control group) was administered intradermally in the ear of Balb/c mice (Charles River Japan, male, 7 weeks old) 5 times every other days. Seven hr after IL-23 administration at 8 days after the initial administration (final administration), the mice were anesthetized with isoflurane, and ear thickness was measured with calipers. After the ear thickness was measured, the ear was resected, tissue 8 mm in diameter was punched from an area centering on the IL-23 injection site, and the tissue was weighed. The punched ear tissue was cut in half, and one half was immersion-fixed in 10% neutral buffer formalin solution for use in histopathological evaluation. The other half was immersed in RNAlater (QIAGEN) for at least 18 hr for use in an evaluation of the IL-17A mRNA expression level. The test compound was suspended in 0.5% methylcellulose and administered orally twice daily on consecutive days from 30 min before the initial IL-23 administration to 30 min before the final IL-23 administration.
The change in ear thickness in this model was evaluated by calculating the difference in measured thickness between before IL-23 administration and 7 hr after the final IL-23 administration. In addition, the formalin-fixed tissue was embedded and sectioned, then stained with hematoxylin-eosin. The degree of acanthosis was then evaluated qualitatively by microscopy (classified with a score of 0 to 4). RNA extraction from the ear tissue and quantitative PCR were performed as follows. […] The RNA thus obtained was reverse transcribed into cDNA using the High-Capacity RNA-to-cDNA kit (Applied Biosystems), and the expression of each gene was measured by real-time PCR (Viia7™, Applied Biosystems). […] The IL-17A gene expression level was normalized to the R-actin gene expression level, and the percent inhibition of IL-17A gene expression with the test compound was then calculated. […]

Compound: COc1ccc2c(n1)CCN(C(=O)CCCC(=O)O)[C@H]2C(=O)Nc1cc(F)c2c(c1)CCC2(C)C [Example 118, 5-((5R)-5-((7-fluoro-1,1-dimethyl-2,3-dihydro-1H-inden-5-yl)carbamoyl)-2-methoxy-7,8-dihydro-1,6-naphthyridin-6(5H)-yl)-5-oxopentanoic acid]
- inhibition at 10 µM [1]: 88%
- inhibition in vivo at 10 mg/kg (IL-17A gene expression): 87%
- Percent Inhibition of Acanthosis Score [2]: 80%
- Percent Inhibition of Ear Thickness [2]: 61%
- Percent Inhibition of IL-17A Expression [2]: 111%
